Several values for one entry are separate records, joined by “and”; a condition that tells them apart may be missing. Identical values can stand only once. Entries after “also recorded” stand apart in the source; their conditions may differ.
Assays:
GI transit = settings: humans; cited from earlier work
[1] = system: guinea pig ileum Longitudinal Muscle Myenteric Plexus (LMMP); experiment: Electrical field stimulated contractions in LMMP strips
Method: Male albino guinea pigs (350-450 g) were euthanized by asphyxiation with CO2. A segment of ileum was removed and placed in a dissection bath filled with pre-oxygenated Krebs' solution (118 mM NaCl, 4.6 mM KCl, 1.3 mM NaH2PO4, 1.2 mM MgSO4, 25 mM NaHCO3, 11 mM glucose, and 2.5 mM CaCl2). Longitudinal Muscle Myenteric Plexus (LMMP) strips were prepared as previously described.^26 Electrical field stimulation (EFS) (50 V, 7.5 Hz, unless stated otherwise) was applied through concentric electrodes over longitudinal muscle or L-type stimulating electrodes over circular muscle strips to produce neurogenic contractions/relaxations. Drugs were added in single or cumulative doses depending on the assay to determine their inhibitory effects on the neurogenic responses.

[2] = system: mouse distal colon circular muscle; experiment: Colon circular muscle isometric tension recordings, distal colon
Method: (§1) Mice were euthanized by cervical dislocation. The colon was dissected, flushed of its contents, and trimmed of mesentery. […] The tissues, 0.5 cm in length, were suspended vertically along the axis of the circular muscle with a metal triangle tied to a hook under 1 g of passive tension in 15 mL siliconized organ baths.
(§2) Data are presented as the mean±S.E.M, values of P≤0.05 were considered significant.

KOR = target: T1, KOR (Homo sapiens, UniProt P41145); settings: NAP data from ref 9b, cited from earlier work
T1 construct: expressed in transfected cells; host or cells: CHO cells (membranes)

MOR = MOR (Mus musculus, UniProt P42866); settings: relative to DAMGO, NAP data from ref 9b; cited from earlier work
[3] = system: mouse proximal colon circular muscle; experiment: Colon circular muscle isometric tension recordings, proximal colon
Method: as §1, §2

colonic motility [4] = settings: rodent models; cited from earlier work
morphine antinociception = experiment: Warm water tail immersion (tail flick) test; type: in vivo, Swiss Webster mice; settings: morphine alone, warm water tail flick
Method: Male Swiss Webster mice (Harlan Laboratories, Indianapolis, Ind.) weighing 25-30 g were housed 5 to a cage in animal care quarters and maintained at […] on a 12 h light-dark cycle. Food and water were available ad libitum. The mice were brought to a test room (22±2° C., 12 h light-dark cycle), marked for identification and allowed 18 h to recover from transport and handling. Protocols and procedures were approved by the Institutional Animal Care and Use Committee (IACUC) at Virginia Commonwealth University Medical Center and comply with the recommendations of the IASP (International Association for the Study of Pain).
The warm water tail-immersion test was performed according to previously described methods using a water bath with the temperature maintained at 56±0.1° C.^20 Briefly, before giving the mice injections, a baseline (control) latency was determined. Only mice with a control reaction time of 2 to 4 s were used. The average baseline latency for these experiments was 3.0±0.1 s. The test latency after drug treatment was assessed at the appropriate time, and a 10 s maximal cutoff time was imposed to prevent tissue damage. Antinociception was quantified according to established procedures as the percentage of maximum possible effect (% MPE), which was calculated as follows: % MPE=[(test latency−control latency)/(10−control latency)]×100.^21 Percentage MPE was calculated for each mouse, using at least six mice per group.
Intracerebroventricular (ICV) injections were performed as described previously.^22 Mice were anesthetized with 2.5% isoflurane and a horizontal incision was made in the scalp. A needle was inserted to a depth of 3 mm into the lateral ventrical (2 mm rostral and 2 mm lateral at a 45° angle from the bregma). At intervals, 5 μL injections of drug or vehicle were made using this guide insertion to the same depth using a needle with a guard in nonanesthetized animals.^22, 23 Animals underwent the anesthetized surgery in the morning of the experiment and were then injected with drug at intervals indicated in the text without additional anesthesia. Immediately after testing, the animals were euthanized to minimize any type of distress, according to IACUC guidelines.

colonic motility [5] = experiment: Colonic bead expulsion assay; type: in vivo, mice; settings: morphine 3 mg/kg; naive mice 17 min
Method: Mice were habituated and fasted as described above for the gastrointestinal transit analysis. […] At 20 min post-injection, animals were anesthetized with isoflurane (1-2 min) to insert a single 2-mm glass bead into the distal colon at a distance of 3 cm from the anus. Bead insertion was accomplished using a glass rod with a fire-polished end to avoid tissue damage and marked at 3 cm.^25 After bead insertion, mice were placed in individual cages and the time to bead expulsion was monitored. Animals were monitored for a maximum of 2 h unless bead expulsion occurred sooner.

intestinal transit = experiment: Charcoal meal test for gastrointestinal transit; type: in vivo, mice; settings: charcoal gavage, compound alone
Method: Forty-eight hours before testing, mice were placed in cages with raised mesh wire to suspend them above their bedding and prevent ingestion of feces or bedding. The animals were habituated for 24 h in the presence of food and water and then fasted for 24 h with free access to water as previously reported.^24 This time frame was chosen to deplete the intestine and colon of any feces. To maintain caloric intake and to avoid hypoglycemia, mice had access to a sugar water solution consisting of a final concentration of 5% dextrose for the first 8 h of the fasting period. […] At 30 min after the administration of the charcoal meal, the mice were euthanized by cervical dislocation, and the small intestine from the jejunum to the cecum was dissected and placed in cold saline to stop peristalsis. The distance traveled by the leading edge of the charcoal meal was measured relative to the total length of the small intestine, and the percentage of intestinal transit for each animal was calculated as percentage transit (charcoal distance)/(small intestinal length)×100. This is referred to as intestinal transit in the text.

T1 sequence (P41145 whole entry): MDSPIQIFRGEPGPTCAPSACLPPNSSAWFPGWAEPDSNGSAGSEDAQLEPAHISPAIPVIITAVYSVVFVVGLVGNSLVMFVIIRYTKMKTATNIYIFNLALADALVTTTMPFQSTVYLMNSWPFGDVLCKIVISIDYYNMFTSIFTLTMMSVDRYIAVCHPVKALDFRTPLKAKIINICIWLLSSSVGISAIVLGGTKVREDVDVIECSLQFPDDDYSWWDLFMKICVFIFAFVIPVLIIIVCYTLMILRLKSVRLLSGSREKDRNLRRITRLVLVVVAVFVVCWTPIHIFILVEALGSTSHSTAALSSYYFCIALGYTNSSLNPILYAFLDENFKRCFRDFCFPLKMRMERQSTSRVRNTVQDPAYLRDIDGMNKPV
MOR, sequence (P42866 whole entry): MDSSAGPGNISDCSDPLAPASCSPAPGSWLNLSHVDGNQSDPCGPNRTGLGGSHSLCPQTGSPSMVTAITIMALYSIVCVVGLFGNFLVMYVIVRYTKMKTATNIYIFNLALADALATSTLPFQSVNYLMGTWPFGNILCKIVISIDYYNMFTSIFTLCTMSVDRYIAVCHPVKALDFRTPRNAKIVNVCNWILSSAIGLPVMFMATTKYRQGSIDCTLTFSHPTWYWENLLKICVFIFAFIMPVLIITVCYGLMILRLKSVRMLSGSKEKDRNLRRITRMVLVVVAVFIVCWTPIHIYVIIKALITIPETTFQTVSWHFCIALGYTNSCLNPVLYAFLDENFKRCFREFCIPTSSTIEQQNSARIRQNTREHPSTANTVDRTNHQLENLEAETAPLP

SMILES: CN(C(=O)C(c1ccccc1)c1ccccc1)[C@H](CN1CC[C@H](O)C1)c1ccccc1 [Asimadoline]
- effect on GI transit (GI transit): did not alter GI transit

SMILES: C[C@@H](NC(=O)[C@@H](N)Cc1ccc(O)cc1)C(=O)NCC(=O)N(C)[C@@H](Cc1ccccc1)C(=O)NCCO [DAMGO, reference compound]
- pIC50 for inhibition of EFS contractions ([1]; guinea pig ileum LMMP): 7.67±0.03
- effect of nor-BNI on agonist inhibition of EFS contractions ([1]; nor-BNI 0.1 μM, 15 min pretreatment): did not significantly effect DAMGO inhibition of EFS contractions

SMILES: O=C(NC1CCC2(O)C3Cc4ccc(O)c5c4C2(CCN3CC2CC2)C1O5)c1ccncc1 (stereo not drawn) [NAP, 17-Cyclopropylmethyl-3, 14beta-dihydroxy-4,5alpha-epoxy-6beta-(4′-pyridylcarboxamido)morphinan, reference compound]
- inhibition of morphine-induced contractions ([2]; 1 nM antagonist, distal colon): neither NAP nor BNAP showed significant inhibition of morphine-induced contractions
- antagonism of morphine effects ([2]; 10 nM antagonist, distal colon): neither NAP nor BNAP showed significant antagonism of morphine effects
- morphine pD2 in presence of antagonist ([2]; 100 nM antagonist, distal colon (naive 6.0)): 5.3
- contractions induced by compound alone ([2]; up to 30 μM, distal colon preparation): Neither BNAP nor NAP alone at concentrations up to 30 μM induced contractions
- EC50 (KOR; 35S-GTP[γS]): 0.0288 ± 0.0144 µM
- % max of agonist (KOR; relative to U50,488H): 45.5±4.4%
- % max of agonist (MOR): 22.72±0.84% and 22.7 ± 0.8%
- inhibition of morphine-induced contractions ([3]; 1 nM antagonist, proximal colon): neither NAP nor BNAP showed significant inhibition of morphine-induced contractions
- morphine pD2 in presence of antagonist ([3]; 10 nM antagonist, proximal colon (naive 6.8)): 5.9
- further reduction of morphine pD2 ([3]; 100 nM versus 10 nM antagonist, proximal colon): no further reduction of the morphine pD2
- contractions induced by compound alone ([3]; up to 30 μM, proximal colon preparation): Neither BNAP nor NAP alone at concentrations up to 30 μM induced contractions

SMILES: COC(=O)[C@@H]1C[C@H](OC(C)=O)C(=O)[C@H]2[C@@]1(C)CC[C@H]1C(=O)O[C@H](c3ccoc3)C[C@]21C [Salvinorin A]
- effect on colonic / GI motility (colonic motility [4]): reduced colonic motility; also recorded: can reduce GI motility

SMILES: CN1CC[C@]23c4c5ccc(O)c4O[C@H]2[C@@H](O)C=C[C@H]3[C@H]1C5 [morphine, reference compound]
- antinociception (morphine antinociception): dose dependently induced antinociception
- bead expulsion time (colonic motility [5]): 75 min
- reduction of intestinal motility (intestinal transit): 3 fold

Source: US20190308987A1, “DUAL MODULATORS OF BOTH MU AND KAPPA OPIOID RECEPTORS” (priority 2016, published 2019)
